Reference: ChEMBL document CHEMBL5233257, “Anticancer property of ginsenoside Rh2 from ginseng” (Eur J Med Chem, 2020)
Values after ≈ are worked out from the molar mass of the structure shown.

Assays:
[1] = system: HepG2; experiment: Induction of apoptosis in human HepG2 cells incubated for 72 hrs; type: functional, cell-based; conditions: HepG2, 72 h
[2] = system: HepG2; experiment: Induction of apoptosis in human HepG2 cells incubated for 24 hrs; type: functional, cell-based; conditions: HepG2, 24 h
[3] = system: HepG2; experiment: Induction of apoptosis in human HepG2 cells incubated for 48 hrs by PI/Annexin V-FITC analysis; type: functional, cell-based; conditions: HepG2, 48 h
[4] = system: HepG2; experiment: Induction of apoptosis in human HepG2 cells incubated for 72 hrs by PI/Annexin V-FITC analysis; type: functional, cell-based; conditions: HepG2, 72 h
[5] = system: HepG2; experiment: Induction of apoptosis in human HepG2 beta-catenin cells incubated for 48 hrs by PI/Annexin V-FITC analysis; type: functional, cell-based; conditions: HepG2, 48 h
[6] = system: HepG2; experiment: Induction of apoptosis in human HepG2 beta-catenin cells incubated for 72 hrs by PI/Annexin V-FITC analysis; type: functional, cell-based; conditions: HepG2, 72 h
[7] = system: HepG2; experiment: Induction of cell death in human HepG2 cells assessed as lethal dose; type: functional; conditions: read-out: LD50 (the source's name)
[8] = system: HCT-116; experiment: Induction of cell death in human HCT-116 cells incubated for 48 hrs by trypan blue staining based analysis; type: functional; conditions: HCT-116, 48 h
[9] = system: SW480; experiment: Induction of cell death in human SW480 cells incubated for 48 hrs by trypan blue staining based analysis; type: functional; conditions: SW480, 48 h
[10] = system: HL-60; experiment: Induction of apoptosis in human HL-60 cells assessed as reduction in cell viability incubated for 72 hrs by CCK-8 assay; type: functional, cell-based; conditions: HL-60, 72 h
[11] = system: Kasumi 1; experiment: Induction of apoptosis in human Kasumi 1 cells assessed as reduction in cell viability incubated for 72 hrs by CCK-8 assay; type: functional, cell-based; conditions: Kasumi 1, 72 h
[12] = system: HL-60; experiment: Induction of apoptosis in human HL-60 cells; type: functional, cell-based
[13] = system: HL-60; experiment: Cytotoxicity against human HL-60 cells measured after 24 hrs by MTT assay; type: functional, cell-based; conditions: HL-60, 24 h
[14] = system: U-937; experiment: Cytotoxicity against human U-937 cells measured after 24 hrs by MTT assay; type: functional, cell-based; conditions: U-937, 24 h
[15] = system: THP-1; experiment: Induction of apoptosis in human THP-1 cells; type: functional, cell-based
[16] = system: K562; experiment: Cytotoxicity against human K562 cells incubated for 48 hrs by CCK-8 assay; type: functional, cell-based; conditions: K562, 48 h
[17] = system: KG-1; experiment: Cytotoxicity against human KG-1 alpha cells incubated for 48 hrs by CCK-8 assay; type: functional, cell-based; conditions: KG-1, 48 h
[18] = system: KG-1; experiment: Cytotoxicity against human KG-1 alpha cells; type: functional, cell-based
[19] = system: REH; experiment: Induction of apoptosis in human REH cells; type: functional, cell-based
[20] = system: Jurkat; experiment: Induction of apoptosis in human Jurkat cells; type: functional, cell-based
[21] = Inhibition of proliferation in human Jurkat cells assessed as reduction in cell viability incubated for 48 hrs by CCK-8 assay; type: functional, cell-based
[22] = system: HeLa; experiment: Induction of apoptosis in human HeLa cells incubated for 2 hrs by fluorescence microscopic analysis; type: functional, cell-based
[23] = system: SK-HEP1; experiment: Induction of apoptosis in human SK-HEP1 cells incubated for 2 hrs by fluorescence microscopic analysis; type: functional, cell-based; conditions: SK-HEP1, 2 h
[24] = system: SW480; experiment: Induction of apoptosis in human SW480 cells incubated for 2 hrs by fluorescence microscopic analysis; type: functional, cell-based; conditions: SW480, 2 h
[25] = system: PC-3; experiment: Antiproliferative activity against human PC-3 cells; type: functional, cell-based
[26] = system: HCT-116; experiment: Cytotoxicity against human HCT-116 assessed as reduction in cell viability by MTT assay; type: functional, cell-based
[27] = system: LNCaP; experiment: Antiproliferative activity against human LNCaP cells incubated for 3 days; type: functional, cell-based; conditions: 72 h
[28] = system: PC-3; experiment: Antiproliferative activity against human PC-3 cells incubated for 3 days; type: functional, cell-based; conditions: PC-3, 72 h
[29] = system: DU-145; experiment: Antiproliferative activity against human DU-145 cells incubated for 3 days; type: functional, cell-based; conditions: DU-145, 72 h
[30] = system: LNCaP; experiment: Antiproliferative activity against human LNCaP cells; type: functional, cell-based
[31] = system: MDA-MB-231; experiment: Induction of apoptosis in human MDA-MB-231 cells assessed as inhibition of cell viability; type: functional, cell-based
[32] = system: MCF7; experiment: Induction of apoptosis in human MCF7 cells assessed as inhibition of cell viability; type: functional, cell-based
[33] = system: MDA-MB-231; experiment: Antiproliferative activity against human MDA-MB-231 cells; type: functional, cell-based
[34] = system: MCF7; experiment: Antiproliferative activity against human MCF7 cells; type: functional, cell-based
[35] = system: A549; experiment: Antiproliferative activity against human A549 cells; type: functional, cell-based
[36] = Cytotoxicity against human HRA cells assessed as reduction in cell viability measured after 5 days by crystal violet staining based analysis; type: functional; conditions: 120 h
[37] = Cytotoxicity against human KK cells assessed as reduction in cell viability measured after 5 days by crystal violet staining based analysis; type: functional; conditions: 120 h
[38] = Cytotoxicity against human KF cells assessed as reduction in cell viability measured after 5 days by crystal violet staining based analysis; type: functional; conditions: 120 h
[39] = Cytotoxicity against human KFR cells assessed as reduction in cell viability measured after 5 days by crystal violet staining based analysis; type: functional; conditions: 120 h
[40] = system: B16-F10; experiment: Induction of cell death in mouse B16-F10 cells; type: functional, cell-based
[41] = system: MDA-MB-231; experiment: Induction of cell death in human MDA-MB-231 cells; type: functional, cell-based
[42] = system: Huh-7; experiment: Induction of cell death in human Huh-7 cells; type: functional, cell-based
[43] = system: B16; experiment: Growth inhibition of mouse B16 cells; type: functional, cell-based
[44] = Induction of apoptosis in human HK-1 cells; type: functional, cell-based

Question: For `CC(C)=CCC[C@](C)(O)[C@H]1CC[C@]2(C)[C@@H]1[C@H](O)C[C@@H]1[C@@]3(C)CC[C@H](O[C@@H]4O[C@H](CO)[C@@H](O)[C@H](O)[C@H]4O)C(C)(C)[C@@H]3CC[C@]12C` [GINSENOSIDE RH2], which IC50 [1] is on record?
Answer: 1.65 µg/mL (≈ 2.65 µM)

Question: And the IC50 [2]?
Answer: 42.1 µM

Question: And the IC50 [3]?
Answer: 100 µM

Question: And the IC50 [4]?
Answer: 58.1 µM

Question: And the IC50 [5]?
Answer: 129 µM

Question: What about the IC50 [6] of the same molecule?
Answer: 83.3 µM

Question: What about the CC50 [7] of the same molecule?
Answer: 10 µM

Question: And the IC50 [8]?
Answer: 35 µM

Question: What about the IC50 [9] of the same molecule?
Answer: 35 µM

Question: And the IC50 [10]?
Answer: 25.6 µM

Question: And the IC50 [11]?
Answer: 60.1 µM

Question: What about the IC50 [12] of the same molecule?
Answer: 25 µM

Question: And the IC50 [13]?
Answer: 38 µM

Question: And the IC50 [14]?
Answer: 38 µM

Question: What about the IC50 [15] of the same molecule?
Answer: 15 µg/mL (≈ 24.1 µM)

Question: What about the CC50 ([15]; read-out: LC50 (the source's name)) of the same molecule?
Answer: 15 µg/mL (≈ 24.1 µM)

Question: What about the IC50 [16] of the same molecule?
Answer: 60 µM

Question: And the IC50 [17]?
Answer: 60 µM

Question: What about the IC50 [18] of the same molecule?
Answer: 75 µM

Question: What about the IC50 [19] of the same molecule?
Answer: 40 µM

Question: What about the IC50 [20] of the same molecule?
Answer: 35 µM

Question: And the IC50 [21]?
Answer: 35 µM

Question: What about the IC50 [22] of the same molecule?
Answer: 2.52 µg/mL (≈ 4.05 µM)

Question: And the IC50 [23]?
Answer: 3.15 µg/mL (≈ 5.06 µM)

Question: And the IC50 [24]?
Answer: 4.06 µg/mL (≈ 6.52 µM)

Question: What about the EC50 [25] of the same molecule?
Answer: 5.5 µM

Question: What about the IC50 [26] of the same molecule?
Answer: 19.6 µM

Question: And the IC50 [27]?
Answer: 17 µM

Question: And the IC50 [28]?
Answer: 35 µM

Question: And the IC50 [29]?
Answer: 38 µM

Question: And the EC50 [30]?
Answer: 4.4 µM

Question: What about the IC50 [31] of the same molecule?
Answer: 50 µM

Question: What about the IC50 [32] of the same molecule?
Answer: 50 µM

Question: What about the EC50 [33] of the same molecule?
Answer: 57.4 µM

Question: And the EC50 [34]?
Answer: 52.5 µM

Question: And the IC50 [35]?
Answer: 28.5 µg/mL (≈ 45.8 µM)

Question: What about the IC50 [36] of the same molecule?
Answer: 30 µM

Question: What about the IC50 [37] of the same molecule?
Answer: 45 µM

Question: What about the IC50 [38] of the same molecule?
Answer: 40 µM

Question: And the IC50 [39]?
Answer: 41 µM

Question: What about the IC50 [40] of the same molecule?
Answer: 35.6 µM

Question: And the IC50 [41]?
Answer: 39.9 µM

Question: And the IC50 [42]?
Answer: 39 µM

Question: And the IC50 [43]?
Answer: 4.1 µg/mL (≈ 6.58 µM)

Question: And the IC50 [44]?
Answer: 12 µM
